# Values quoted from earlier work as cited in patent publication US20030004142A1, “Use of NSAIDs for prevention and treatment of cellular abnormalities of the lung or bronchial pathway” (priority 2001, published 2003).
# Experiments:
# OPC cell lines [1] = details: all OPC cell lines tested
# OPC cell lines [2] = details: all OPC cell lines tested; remark: listed apart in the source
structure (smiles),measurement,setting,value
"O=C(c1ccccc1)c1ccc2n1CCC2C(=O)O (stereo not shown) [ketorolac, (.+−.)5(benzoyl)-2,3-dihydro-1H-pyrrolizine-1carboxylic acid]",PGE2 production,OPC cell lines [1],continuously and significantly decreased
same,IL-6 levels,OPC cell lines [2],continuously and significantly decreased
same,IL-8 levels,OPC cell lines [2],continuously and significantly decreased
same,OPC growth in vivo,OPC,reduced OPC growth in vivo
